{"source": "patent US11466006B2", "about": "“Dual selective PI3 delta and gamma kinase inhibitors” (Rhizen Pharmaceuticals SA, priority 2013, dated 2022)", "key": {"PI3Kδ": {"molecular_target": "PI3Kδ (Homo sapiens, UniProt O00329)", "sequence (O00329 whole entry, canonical isoform)": "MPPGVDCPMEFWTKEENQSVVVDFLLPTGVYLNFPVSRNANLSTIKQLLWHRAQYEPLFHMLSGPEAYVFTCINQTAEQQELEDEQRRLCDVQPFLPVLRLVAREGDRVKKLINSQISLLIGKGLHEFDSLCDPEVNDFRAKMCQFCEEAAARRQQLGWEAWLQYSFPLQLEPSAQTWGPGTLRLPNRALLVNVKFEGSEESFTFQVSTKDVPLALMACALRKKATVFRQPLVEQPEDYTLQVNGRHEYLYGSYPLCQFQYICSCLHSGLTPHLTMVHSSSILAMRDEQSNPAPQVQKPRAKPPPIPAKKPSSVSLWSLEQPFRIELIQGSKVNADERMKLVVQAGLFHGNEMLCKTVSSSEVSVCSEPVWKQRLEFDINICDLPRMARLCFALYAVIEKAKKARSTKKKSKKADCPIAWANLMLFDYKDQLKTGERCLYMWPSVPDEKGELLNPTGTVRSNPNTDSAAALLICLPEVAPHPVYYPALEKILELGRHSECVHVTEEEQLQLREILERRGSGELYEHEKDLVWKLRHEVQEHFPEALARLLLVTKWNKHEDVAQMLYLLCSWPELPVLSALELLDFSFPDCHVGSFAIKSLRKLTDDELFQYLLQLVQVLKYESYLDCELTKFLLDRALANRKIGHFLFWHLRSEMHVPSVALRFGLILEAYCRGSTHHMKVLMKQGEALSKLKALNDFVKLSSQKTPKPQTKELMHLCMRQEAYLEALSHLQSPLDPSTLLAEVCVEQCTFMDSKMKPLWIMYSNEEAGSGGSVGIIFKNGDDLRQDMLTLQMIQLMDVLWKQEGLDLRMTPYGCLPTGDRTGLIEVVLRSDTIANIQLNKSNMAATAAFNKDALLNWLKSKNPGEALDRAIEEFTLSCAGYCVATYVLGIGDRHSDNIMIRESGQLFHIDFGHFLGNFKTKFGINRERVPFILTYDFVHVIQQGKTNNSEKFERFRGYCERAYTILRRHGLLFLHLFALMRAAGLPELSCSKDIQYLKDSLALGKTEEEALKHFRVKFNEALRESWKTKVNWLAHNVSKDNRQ", "sequence (P27986 whole entry partner, canonical isoform)": "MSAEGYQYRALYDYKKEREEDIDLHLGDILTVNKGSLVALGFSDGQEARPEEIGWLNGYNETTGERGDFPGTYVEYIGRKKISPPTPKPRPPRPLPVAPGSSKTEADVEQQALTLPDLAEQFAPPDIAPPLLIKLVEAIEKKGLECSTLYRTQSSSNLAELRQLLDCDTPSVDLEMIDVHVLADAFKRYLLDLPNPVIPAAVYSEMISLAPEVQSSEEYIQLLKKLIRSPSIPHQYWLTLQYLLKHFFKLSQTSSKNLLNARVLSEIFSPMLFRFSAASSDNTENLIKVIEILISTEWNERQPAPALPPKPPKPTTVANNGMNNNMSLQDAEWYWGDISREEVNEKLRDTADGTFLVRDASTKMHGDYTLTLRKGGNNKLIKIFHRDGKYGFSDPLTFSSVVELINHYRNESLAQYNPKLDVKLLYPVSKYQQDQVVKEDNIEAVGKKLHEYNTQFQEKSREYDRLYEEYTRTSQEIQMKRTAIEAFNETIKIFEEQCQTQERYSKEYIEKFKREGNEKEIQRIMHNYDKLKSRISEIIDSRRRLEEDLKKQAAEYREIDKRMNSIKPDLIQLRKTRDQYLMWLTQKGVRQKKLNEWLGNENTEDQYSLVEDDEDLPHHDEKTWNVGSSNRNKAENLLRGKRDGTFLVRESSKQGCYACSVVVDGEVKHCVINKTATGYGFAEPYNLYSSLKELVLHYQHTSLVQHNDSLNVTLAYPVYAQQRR", "experiment": "Fluorescent (HTRF) determination of PI3 kinase enzyme activity, delta isoform", "assay_type": "biochemical", "set-up": "purchased Millipore (assay kit)", "settings": "Table 1, unit printed in cell; read-out: IC50 Pi3Kδ", "excerpt": "(§1) Phosphoinositide 3 kinases (PI3K) belong to a class of lipid kinases that play a critical role in the regulation of several key cellular processes. The PI3K are capable of phosphorylating the 3-hydroxy position of phosphoinositols thereby generating second messengers involved in downstream signalling events. The homogenous time resolved fluorescence (HTRF) assay allows detection of 3,4,5-triphosphate (PIP3) formed as a result of phosphorylation of phosphotidylinositol 4,5-biphosphate (PIP2) by PI3K isoforms such as α, β, γ or δ.\n(§2) PI3K isoform activity for α, β, γ or δ was determined using a PI3K human HTRF™ Assay Kit (Millipore, Billerica, Mass.) with modifications. All incubations were carried out at room temperature. Briefly, 0.5 μl of 40× inhibitor (in 100% DMSO) or 100% DMSO were added to each well of a 384-well white plate (Greiner Bio-One, Monroe, N.C.) containing 14.5 μl 1× reaction buffer /PIP2 (10 mM MgCl2, 5 mM DTT, 1.38 μM PIP2) mix with or without enzyme, followed by 5 μl/well of 400 μM ATP and incubated for an additional 30 minutes. Reaction was terminated by adding 5 μl/well stop solution (Millipore, Billerica, Mass.). […] HRTF ratio was measured on a microplate reader (BMG Labtech., Germany) at an excitation wavelength of 337 nm and emission wavelengths of 665 and 615 nm with an integration time of 400 msec counting delay of 50 msec."}, "Pi3K γ": {"molecular_target": "Pi3K γ (Homo sapiens, UniProt P48736)", "sequence (P48736 whole entry, canonical isoform)": "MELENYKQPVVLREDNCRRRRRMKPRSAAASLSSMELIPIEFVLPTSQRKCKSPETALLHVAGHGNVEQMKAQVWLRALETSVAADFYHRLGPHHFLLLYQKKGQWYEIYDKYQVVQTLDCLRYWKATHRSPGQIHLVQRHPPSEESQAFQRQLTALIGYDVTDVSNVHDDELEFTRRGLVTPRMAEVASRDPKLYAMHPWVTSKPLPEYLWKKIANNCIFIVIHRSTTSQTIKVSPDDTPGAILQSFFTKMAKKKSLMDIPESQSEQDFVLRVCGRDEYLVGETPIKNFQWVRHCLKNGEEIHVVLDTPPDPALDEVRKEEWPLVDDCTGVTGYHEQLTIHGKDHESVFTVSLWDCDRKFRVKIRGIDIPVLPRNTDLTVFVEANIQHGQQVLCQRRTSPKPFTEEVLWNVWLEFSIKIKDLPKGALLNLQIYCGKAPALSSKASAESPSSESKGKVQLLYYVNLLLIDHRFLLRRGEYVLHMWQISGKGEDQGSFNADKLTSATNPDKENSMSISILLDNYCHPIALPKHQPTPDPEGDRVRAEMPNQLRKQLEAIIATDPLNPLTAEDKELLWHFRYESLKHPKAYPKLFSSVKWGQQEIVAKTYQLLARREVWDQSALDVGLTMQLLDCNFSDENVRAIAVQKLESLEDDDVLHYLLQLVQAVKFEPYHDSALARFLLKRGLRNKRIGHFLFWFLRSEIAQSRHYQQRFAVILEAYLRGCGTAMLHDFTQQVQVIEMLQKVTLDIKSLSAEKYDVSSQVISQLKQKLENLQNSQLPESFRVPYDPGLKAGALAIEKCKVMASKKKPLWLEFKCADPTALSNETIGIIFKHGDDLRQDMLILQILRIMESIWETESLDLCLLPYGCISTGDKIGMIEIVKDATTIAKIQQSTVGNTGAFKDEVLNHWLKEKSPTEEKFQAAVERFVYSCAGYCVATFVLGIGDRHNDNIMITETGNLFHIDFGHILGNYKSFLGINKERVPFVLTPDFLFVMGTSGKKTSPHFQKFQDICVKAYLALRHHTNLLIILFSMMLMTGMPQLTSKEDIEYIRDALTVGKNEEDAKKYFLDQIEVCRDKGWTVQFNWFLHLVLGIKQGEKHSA", "experiment": "Fluorescent (HTRF) determination of PI3 kinase enzyme activity, gamma isoform", "assay_type": "biochemical", "set-up": "purchased Millipore (assay kit)", "settings": "Table 1, unit printed in cell; read-out: IC50 Pi3K γ", "excerpt": "as §1, §2"}, "[1]": {"settings": "reported at 55th ASH Annual Meeting 2013; cited from earlier work"}}, "data": [{"smiles": "CC[C@@H](Nc1ncnc2[nH]cnc12)c1oc2ccccc2c(=O)c1-c1cccc(F)c1", "note": "[Compound A2, (R)-2-(1-(9H-purin-6-ylamino)propyl)-3-(3-fluorophenyl)-4H-chromen-4-one]", "values": [{"measurement": "IC50", "setting": "PI3Kδ", "value": "> 10", "unit": "µM"}, {"measurement": "IC50", "setting": "Pi3K γ", "value": "> 10", "unit": "µM"}]}, {"smiles": "C[C@H](Nc1ncnc2[nH]cnc12)c1cc2cccc(Cl)c2c(=O)n1-c1ccccc1", "note": "[IPI-45]", "values": [{"measurement": "maximum tolerated dose (MTD)", "setting": "[1]", "value": 75, "unit": "mg BID"}]}]}
